Results published in patent US8710055B2, “Triazolylphenyl sulfonamides as serine/threonine kinase inhibitors” (Boehringer Ingelheim International GmbH, priority 2010, dated 2014).

What follows are compounds tested on SK-MEL-28 cells (B-RAF V600E mutated) (assay: Inhibition of the proliferation of cultivated human melanoma cells (SK-MEL-28), AlamarBlue). Conditions: 72 h incubation.
Format: cell-based
Description: Measurement of the Inhibition of the Proliferation of Cultivated Human Melanoma Cells (SK-MEL-28, B-RAF^[…] Mutated)
For measuring the proliferation of cultivated human tumour cells, cells of the melanoma cell line SK-MEL-28 [from American Type Culture Collection (ATCC)] are cultivated in MEM medium, supplemented with 10% foetal calf serum, 2% sodium bicarbonate, 1 mM sodium pyruvate, 1% non-essential amino acids (e.g. from Cambrex, # BE13-114E) and 2 mM glutamine. SK-MEL-28 cells are placed in 96-well flat bottomed dishes in a density of 2500 cells per well in supplemented MEM medium (see above) and incubated overnight in an incubator (at 37° C. and 5% CO2). The active substances are added to the cells in different concentrations, so that a concentration range of 50 μM to 3.2 nM is covered. If necessary the initial concentration of 50 μM is changed to 10 μM or 2 μM and further dilution is carried out accordingly (up to 0.6 nM or 0.12 nM). After an incubation period of a further 72 h 20 μL AlamarBlue reagent (Serotec Ltd., # BUF012B) are added to each well and the cells are incubated for a further 3-6 h. The colour change of the AlamarBlue reagent is determined in a fluorescence spectrophotometer (e.g. Gemini, Molecular Devices). EC50 values are calculated using a software program (GraphPadPrizm).

EC50	SMILES
158 nM	COc1cncc(-c2cn(-c3c(F)ccc(NS(=O)(=O)CC(C)C)c3F)nn2)c1 [Example I-25]
5 nM	CC(C)(C)N1CCN(c2cncc(-c3cn(-c4c(F)ccc(NS(=O)(=O)c5ccoc5)c4Cl)nn3)c2)CC1 [Example I-69]
305 nM	CCCS(=O)(=O)Nc1ccc(F)c(-n2cc(-c3cncc(N4CCC(N5CCOCC5)CC4)c3)nn2)c1F [Example I-8]
44 nM	CCCS(=O)(=O)Nc1ccc(F)c(-n2cc(-c3cncc(N4CCN(C(C)C)CC4)c3)nn2)c1Cl [Example I-63]
117 nM	CC(C)CS(=O)(=O)Nc1ccc(F)c(-n2cc(-c3cncc(N4CCN(C)CC4)c3)nn2)c1F [Example I-24]
